Laboratory results taken from ChEMBL document CHEMBL3393042, “Synthesis and photophysical characterization of quasi push-pull dicyanodibenzodioxins and their anti-tumor activity against glioma cell line C6” (Bioorg Med Chem Lett, 2015).
Calls of active or inactive are those of the source. The rule behind the calls is not given here.

These molecules were tested on C6 (assay: Cytotoxicity against rat C6 cells assessed as cell viability at 2 to 50 uM after 24 hrs by MTT assay).
Format: functional, cell-based
In the case of `N#Cc1cc2c(cc1C#N)Oc1cc([N+](=O)[O-])ccc1O2`, the Activity is reported as “inactive”. For `N#Cc1cc2c(cc1C#N)Oc1ccccc1O2`, the Activity was “Active”. For `N#Cc1cc2c(cc1C#N)Oc1cc(Br)ccc1O2`, the Activity was “Active”.
